Like-named read-outs stand apart in the source and are kept apart here.
Key:
[1] = Extractable organofluorine (EOF) and fluorine mass balance in plasma and tissues at 48 h; type: in vivo, rat; conditions: for concentration at 48 h: male, RccHan:WIST, rat, read-out: PFOA-fluorine equivalent
Protocol: Plasma and tissue samples taken at 48 h after exposure were subjected to EOF analysis. Extraction procedure followed the procedure described above with the exception that no mass labelled internal standards were spiked to the samples before extraction. The EOF content of the 1 mL extract was analyzed by combustion ion chromatography (CIC). Part of the extract (200 μL) was transferred to a LC vial with the addition of 10 μL of mass-labelled standards; after that, aqueous ammonium acetate (2 mM, 300 μL) was added to the vial for PFAS analysis using LC-MS/MS. The reported EOF concentrations as well as the concentration of PFOA for mass balance analysis were not recovery-corrected.
Levels of EOF in the sample extracts were determined with a combustion ion chromatography (CIC) system consisting of a combustion module (Analytik Jena, Germany), a 920 Absorber Module and a 930 Compact IC Flex ion chromatograph module (both from Metrohm, Switzerland). An ion exchange column (Metrosep A Supp 5–150/4.0), with carbonate buffer (64 mmol/L sodium carbonate and 20 mmol/L sodium bicarbonate) as the mobile phase, was used for the separation of anions; the absorber solution was water. The sample extract (100 μL) was set on a silica boat via an autosampler and placed into a furnace at 900–1000 °C. The combustion of the sample in the furnace converted organic fluorine and inorganic fluorine into hydrogen fluoride (HF), which was then trapped by MilliQ water. The fluoride concentration in the solution was analyzed using ion chromatography. […] Quantification was based on external calibration. The analytical conditions for ion chromatography have been reported elsewhere (Kärrman et al. [2021]).
The measured PFOA concentration (ng/mL) in the sample extract of the EOF analysis was converted to the corresponding fluoride-equivalent concentration (ng/mL F) using the following formula:1 CFPFAS=CPFAS*NF*AF/MWPFAS where CPFAS is the concentration of the target compound (i.e., PFOA), NF is the number of fluorine atoms in the target compound (i.e., 15), AF is the atomic weight of fluorine (g/mol, i.e., 19), and MWPFAS is the molecular weight of the target compound (i.e., 413). The sum of known extractable fluorine concentration (ΣCF_PFAS) was calculated by summing the fluorine concentrations from all individual PFASs. Values below limits of quantification (LOQ) were set for calculating ΣCF_PFAS. Levels of unidentified organofluorine were calculated by subtracting […], which in this present study only PFOA.

[2] = parameters: method as in Iwabuchi et al. [2017]; conditions: oral 100 μg/kg bw, male rats, ref Iwabuchi et al. [2017], cited from earlier work

O=C(O)C(F)(F)C(F)(F)C(F)(F)C(F)(F)C(F)(F)C(F)(F)C(F)(F)F [PFOA, Perfluorooctanoic acid]
Proportion of PFOA to EOF in plasma ([1]; both exposure groups): 65–71%
Contribution to EOF (%) ([1]; kidney, inhalation): 81%
Contribution to EOF (%) ([1]; kidney, oral): 83%
Contribution to EOF (%) ([1]; liver, inhalation): 87%
Contribution to EOF (%) ([1]; liver, oral): 83%
Contribution to EOF (%) ([1]; lung lavage, inhalation): 76%
Contribution to EOF (%) ([1]; lung lavage, oral): 84%
Contribution to EOF (%) ([1]; lung, inhalation): 86%
Contribution to EOF (%) ([1]; lung, oral): 74%
concentration at 48 h ([1]; 364 μg PFOA/kg BW, kidney, oral): 2160 ± 130 ng/g
concentration at 48 h ([1]; 364 μg PFOA/kg BW, liver, oral): 6140 ± 340 ng/g
concentration at 48 h ([1]; 364 μg PFOA/kg BW, lung, oral): 1160 ± 210 ng/g
concentration at 48 h ([1]; 364 μg PFOA/kg BW, plasma, oral, not recovery-corrected): 1420 ± 240 ng/mL
concentration at 48 h ([1]; inhaled, 164 μg PFOA/kg BW, kidney, inhalation): 2640 ± 530 ng/g
concentration at 48 h ([1]; inhaled, 164 μg PFOA/kg BW, liver, inhalation): 6950 ± 650 ng/g
concentration at 48 h ([1]; inhaled, 164 μg PFOA/kg BW, lung, inhalation): 21500 ± 2750 ng/g
concentration at 48 h ([1]; inhaled, 164 μg PFOA/kg BW, plasma, inhalation, not recovery-corrected): 1530 ± 170 ng/mL
concentration at 48 h ([1]; lung lavage (BALF), 364 μg PFOA/kg BW, lung lavage, oral): 210 ± 20 ng/mL
concentration at 48 h ([1]; lung lavage (BALF), inhaled, 164 μg PFOA/kg BW, lung lavage, inhalation): 6870 ± 430 ng/mL
Share of EOF levels explained by measured PFOA, all samples ([1]; plasma and tissues): 65–87%
Contribution to EOF (%) ([1]; plasma, oral): 65%
Liver to serum ratio ([2]; at Cmax (12 h)): 1.67
Kidney to serum ratio [2]: 0.82

Reference: paper PMC9587079, “Bioavailability of inhaled or ingested PFOA adsorbed to house dust” (Environmental Science and Pollution Research International, 2022)
